Reference: patent US20240190885A1, “KRAS PROTEIN DEGRADERS, PHARMACEUTICAL COMPOSITIONS THEREOF, AND THEIR THERAPEUTIC APPLICATIONS” (BioTheryX, Inc., priority 2021, published 2024)

Experiments:
Type in all cases: cell-based
KRAS = target: T1, KRAS (Homo sapiens, UniProt P01116); experiment: Protein degradation assay (western blot) in HEK293 cells; settings: 6 h; for percent KRAS protein degradation at 3 µM: compound 3 μM; for KRAS Protein Degradation (%) 5 μM: compound 5 μM
T1 construct: Whole cell extracts were prepared using an immunoprecipitation (IP) lysis buffer; endogenous in cells; host or cells: HEK293
T1 sequence (P01116 1-188 isoform P01116-2): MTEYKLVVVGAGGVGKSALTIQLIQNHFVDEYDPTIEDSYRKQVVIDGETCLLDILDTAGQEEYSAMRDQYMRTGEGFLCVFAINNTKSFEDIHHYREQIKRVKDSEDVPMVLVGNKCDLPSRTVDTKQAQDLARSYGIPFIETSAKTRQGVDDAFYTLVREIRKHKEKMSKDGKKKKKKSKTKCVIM
Procedure: HEK293 cells were grown in RPMI 1640 media supplemented with 10% fetal bovine serum, streptomycin, and penicillin. The cells were plated in 24-well plates in the growth media. The cells were then treated with a compound at indicated concentrations for 6 h. Whole cell extracts were prepared using an immunoprecipitation (IP) lysis buffer. Briefly, the cells were washed once in PBS, and the cell pellets were resuspended in the IP lysis buffer and incubated for 15 min on ice. Cell debris was removed by centrifugation and the cleared whole cell lysates were transferred to new tubes for further analysis.
For a western blot analysis, the whole cell protein extracts were separated on 4-12% SDS-polyacrylamide gels, transferred to nitrocellulose, and probed with primary antibodies. The nitrocellulose is subsequently washed and probed with IRDYE® secondary antibodies. The signals were detected using an ODYSSEY® Imaging System. The antibodies used in the assay included anti-KRAS; […] mouse monoclonal antibody; IRDYE® 680RD goat anti-rabbit antibody; and IRDYE® 800CW goat anti-mouse antibody.

Lovo (G13D) cells = experiment: Cell viability assay (CELLTITER-GLO), Lovo cells; settings: Homo sapiens, 72 h, 3 days, CELLTITER-GLO luminescence, read-out: Inhibition of Cancerous Cells IC50 Lovo (G13D)
Procedure: (§1) H358 and SW48 cells were cultured in RPMI 1640 media supplemented with 10% fetal bovine serum, streptomycin, and penicillin. Lovo and SW480 cells were cultured in DMEM media supplemented with 10% fetal bovine serum, streptomycin, and penicillin. The cell lines were plated in their respective medium supplemented with 2.5% fetal bovine serum, streptomycin, and penicillin. All cell lines were plated in white walled 96-well plates at 2,000 cells/well or 384-well plates at 500 cells/well, except Lovo, which were plated at 4,000 or 1,000 cells/well, respectively. The cells were incubated in DMSO (control) or a compound for 3 days at 37° C. under 5% CO2. A CELLTITER-GLO® reagent (100 μL) was then added to each well. After a 10 min incubation with shaking, luminescence was measured using an ENVISION® multimode plate reader.

SW48 (wt) cells = experiment: Cell viability assay (CELLTITER-GLO), SW48 cells; settings: Homo sapiens, 72 h, 3 days, CELLTITER-GLO luminescence, read-out: Inhibition of Cancerous Cells IC50 SW48 (wt)
Procedure: as §1

H358 (G12C) cells = experiment: Cell viability assay (CELLTITER-GLO), H358 cells; settings: Homo sapiens, NCI-H358, 72 h, 3 days, CELLTITER-GLO luminescence, read-out: Inhibition of Cancerous Cells IC50 H358 (G12C)
Procedure: as §1

SW480 (G12V) cells = experiment: Cell viability assay (CELLTITER-GLO), SW480 cells; settings: Homo sapiens, 72 h, 3 days, CELLTITER-GLO luminescence, read-out: Inhibition of Cancerous Cells IC50 SW480 (G12V)
Procedure: as §1

| percent KRAS protein degradation at 3 µM (KRAS) [%] | KRAS Protein Degradation (%) 5 μM (KRAS) [%] | IC50 (Lovo (G13D) cells) [nM] | IC50 (SW48 (wt) cells) [nM] | IC50 (H358 (G12C) cells) [nM] | IC50 (SW480 (G12V) cells) [nM] | SMILES |
| --- | --- | --- | --- | --- | --- | --- |
| 0 | 0 | 980 | 1400 | 3300 | 1200 | Cc1nn2c(N3CCN(CCO)CC3)cc(-c3cccc(CCOCCOC(=O)CC45CC6CC(CC(C6)C4)C5)c3)nc2c1-c1ccccc1 [Compound A3, 2-(3-(7-(4-(2-hydroxyethyl)piperazin-1-yl)-2-methyl-3-phenylpyrazolo[1,5-a]pyrimidin-5-yl)phenethoxy)ethyl 2-(adamantan-1-yl)acetate] |
| 0 |  |  |  |  |  | Cc1nn2c(N3CCN(CCO)CC3)cc(-c3ccccc3)nc2c1-c1ccccc1 [drawing 106, reference compound] |
| 20 | 51 | 880 | 1300 | 1600 | 1200 | Cc1nn2c(N3CCN(CCO)CC3)cc(-c3cccc(CCOCCNC(=O)CC45CC6CC(CC(C6)C4)C5)c3)nc2c1-c1ccccc1 [Compound A4, 2-(adamantan-1-yl)-N-(2-(3-(7-(4-(2-hydroxyethyl)piperazin-1-yl)-2-methyl-3-phenylpyrazolo[1,5-a]pyrimidin-5-yl)phenethoxy)ethyl)acetamide] |
| 7 | 27 | 4500 | 5000 | 7800 | > 10000 | Cc1nn2c(N3CCN(CCO)CC3)cc(-c3cccc(CCCCCCCCCNC(=O)CC45CC6CC(CC(C6)C4)C5)c3)nc2c1-c1ccccc1 [Compound A1, 2-(adamantan-1-yl)-N-(9-(3-(7-(4-(2-hydroxyethyl)piperazin-1-yl)-2-methyl-3-phenylpyrazolo[1,5-a]pyrimidin-5-yl)phenyl)nonyl)acetamide] |
| 0 | 0 | 3400 | 4500 | > 10000 | 2200 | Cc1nn2c(N3CCN(CCO)CC3)cc(-c3ccccc3)nc2c1-c1cccc(CCCCCCCCCNC(=O)CC23CC4CC(CC(C4)C2)C3)c1 [Compound C2, 2-(Adamantan-1-yl)-N-(9-(3-(7-(4-(2-hydroxyethyl)piperazin-1-yl)-2-methyl-5-phenylpyrazolo[1,5-a]pyrimidin-3-yl)phenyl)nonyl)acetamide] |
| 4 | 18 | > 10000 | > 10000 | > 10000 | > 10000 | Cc1nn2c(N3CCN(CCO)CC3)cc(-c3cccc(C#CCCCCCCCOC(=O)CC45CC6CC(CC(C6)C4)C5)c3)nc2c1-c1ccccc1 [Compound A5, 9-(3-(7-(4-(2-hydroxyethyl)piperazin-1-yl)-2-methyl-3-phenylpyrazolo[1,5-a]pyrimidin-5-yl)phenyl)non-8-yn-1-yl 2-(adamantan-1-yl)acetate] |
| 20 | 54 | 1200 | 1400 | 1700 | 840 | Cc1nn2c(N3CCN(CCO)CC3)cc(-c3cccc(CCNC(=O)CC45CC6CC(CC(C6)C4)C5)c3)nc2c1-c1ccccc1 [Compound A2, 2-(adamantan-1-yl)-N-(3-(7-(4-(2-hydroxyethyl)piperazin-1-yl)-2-methyl-3-phenylpyrazolo[1,5-a]pyrimidin-5-yl)phenethyl)acetamide] |
|  |  | 2600 | 2700 | 3300 | 1400 | Cc1nn2c(N3CCN(CCO)CC3)cc(-c3ccccc3)nc2c1-c1ccccc1 [drawing 105, reference compound] |
| 10 | 28 | > 10000 | > 10000 | > 10000 | > 10000 | Cc1nn2c(N3CCN(CCO)CC3)cc(-c3cccc(CCCCCCCCCOC(=O)CC45CC6CC(CC(C6)C4)C5)c3)nc2c1-c1ccccc1 [Compound A6, 9-(3-(7-(4-(2-hydroxyethyl)piperazin-1-yl)-2-methyl-3-phenylpyrazolo[1,5-a]pyrimidin-5-yl)phenyl)nonyl 2-(adamantan-1-yl)acetate] |
